Assay type in all cases: binding
The target of assay [1] is T1, Arabidopsis TGD2, DsRed-TGD2C minimal domain (DR-25, TGD2C T8, residues 201-225, SEQ ID NO:12) (Arabidopsis thaliana, UniProt Q9LTR2).
T1 sequence (Q9LTR2 201-225): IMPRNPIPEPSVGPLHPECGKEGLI
As to the kind of experiment: Liposome-association assay, minimal domain DR-25. As to the method: (§1) The liposome association assay was performed as previously reported. (31). Briefly, lipids (dioleoyl-phosphatidylcholine, DOPC or dioleoyl-PA, DOPA) were incubated in TBS (50 mM Tris-HCl, pH 7; 0.1 M NaCl) at 37° C. for an hour followed by vigorous vortexing for 5 min. The liposomes were precipitated at 20,000 g and washed twice with ice-cold TBS.
(§2) Liposomes (200 μg) were mixed with purified DsRed-TGD2 fusion protein and TBS to make a final 100 μL solution. The mixture was incubated at 30° C. for 30 min and washed twice with ice-cold TBS by centrifugation at 20,000 g at 4° C. The liposome pellet mixed with sample buffer was analyzed by SDS-PAGE (28). Immuno-detection of the His-tagged protein was accomplished using the above mentioned Penta-His antibody at 1:15,000 and the anti mouse antibody at 1:75,000 dilution.
(§3) The protein band was visualized by chemiluminescent detection kit from Sigma. The autoradiography film was scanned, distinct protein bands were quantified using computer software Multi Gauge V3.0 (Fujifilm USA, Valhalla, N.Y.) and resulted data were plotted and analyzed by OriginPro8 (Origin lab corporation, Northampton, Mass.).

Assay [2] concerns DsRed protein (Discosoma sp. red fluorescent protein). As to the kind of experiment: Liposome-association assay, DsRed control. Particulars: FIG. 3B. As to the method: as §1, §2, §3
Assay [3] deals with T2, Arabidopsis TGD4, DsRED-ΔTGD4-His (hydrophobic region 287D-309F deleted, SEQ ID NO:133) (Arabidopsis thaliana, UniProt Q9M903, DEL287-309).
T2 construct: b369 deletes nt 859-924 (22 codons)
As to the kind of experiment: Liposome association assay, DsRED-ΔTGD4-His. Particulars: dioleoyl-PtdOH/dioleoyl-PtdCho liposomes, 0 to 80% PtdOH, FIG. 19B. As to the method:
(§4) Liposome Association Assay:
(§5) The liposome association assay was adapted from (Awai et al., 2006, Lu and Benning, 2009) with minor modifications. Dioleoyl-PtdCho and PtdOH with different acyl chain lengths and desaturation levels were used for making liposomes. In other liposomes 1-palmitoyl-2-(12-((7-nitro-2-1,3-benzoxadiazol-4-yl)amino)dodecanoyl)-sn-glycero-3-phosphate (NBD-PtdOH; Avanti, Alabaster, Ala.) was used. The lipids were mixed at indicated ratios to give a total lipid amount of 250 μg. The lipids were dried under a stream of nitrogen, resuspended in 0.5 ml TBS buffer with 0.2 M choline chloride and hydrated at 37° C. for 1 hour followed by vigorous vortexing for 2 minutes. The resulting multi-lamellar vesicles were centrifuged at 13,000×g for 10 minutes and then washed once with TBS buffer containing 0.2 M choline chloride. The liposomes were resuspended into 100 μl TBS buffer with 0.2 M choline chloride and incubated with 2 μg purified DsRED-TGD4-His protein and its derivatives. The protein liposome mixture was incubated on ice for 30 minutes followed by centrifugation at 13,000×g for 10 minutes and two washes with 500 μl TBS containing 0.2 M choline chloride. The resulting protein-liposome pellet was resuspended in 20 μl 2× Laemmli buffer (Laemmli, 1970) and processed by SDS-PAGE (Shapiro and Maizel, 1969).

In assay [4] the target is Arabidopsis TGD2, DsRed fusion of the 25-mer minimal domain (residues 201-225, SEQ ID NO:12), K221A (Arabidopsis thaliana, UniProt Q9LTR2, K221A). As to the kind of experiment: Liposome-association assay, point mutant K221A of the minimal domain. Particulars: 100% PA liposomes, FIG. 4C. The procedure:
Some reports have identified that TGD2 PA-binding regions involve basic amino acids and/or tryptophan residues (10). […] Based on sequence similarity of TGD2 to its closely related homologs in plants and green algae, several charged and/or conserved amino acids were picked as potential interesting residues in the 25-mer minimal domain for possibly mediating interactions with PA. An alanine screen was then performed to evaluate these residues within a minimal PA binding region of TGD2 (i.e., for example, SEQ ID NO:12). Point mutations were generated in the 25-mer minimal domain and fused with DsRed to test PA binding by liposome-association assay using 100% PA liposomes.
The liposome association assay was performed as previously reported. (31). […]
Liposomes (200 μg) were mixed with purified DsRed-TGD2 fusion protein and TBS to make a final 100 μL solution. […] The liposome pellet mixed with sample buffer was analyzed by SDS-PAGE (28). […]
as §3

The target of assay [5] is T3, Arabidopsis TGD4, DsRED-TGD4-His, full-length TGD4 1-479 (SEQ ID NO: 132) (Arabidopsis thaliana, UniProt Q9M903).
T3 sequence (Q9M903 1-479): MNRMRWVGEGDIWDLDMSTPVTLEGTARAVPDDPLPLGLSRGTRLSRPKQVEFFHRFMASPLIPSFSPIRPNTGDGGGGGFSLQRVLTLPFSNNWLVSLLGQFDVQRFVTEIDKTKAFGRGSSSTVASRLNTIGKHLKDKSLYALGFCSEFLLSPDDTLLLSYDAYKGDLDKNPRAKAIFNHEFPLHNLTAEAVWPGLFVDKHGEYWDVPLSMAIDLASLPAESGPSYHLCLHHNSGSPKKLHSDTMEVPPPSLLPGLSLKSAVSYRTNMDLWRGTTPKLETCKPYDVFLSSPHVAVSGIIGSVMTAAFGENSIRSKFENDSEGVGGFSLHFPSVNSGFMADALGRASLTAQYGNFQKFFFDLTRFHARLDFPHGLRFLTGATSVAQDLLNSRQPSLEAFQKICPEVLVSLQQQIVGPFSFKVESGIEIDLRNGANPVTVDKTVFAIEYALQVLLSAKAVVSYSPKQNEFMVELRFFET
As to the kind of experiment: Liposome association assay, DsRED-TGD4-His. Particulars: pH range of 6.4-7.8, FIG. 18E. The procedure: as §4, §5

SMILES strings stand for the structures. Entries after “also recorded” stand apart in the source; their conditions may differ.

T2 sequence (Q9M903 other isoform, or with tags, fused parts or gaps DEL287-309): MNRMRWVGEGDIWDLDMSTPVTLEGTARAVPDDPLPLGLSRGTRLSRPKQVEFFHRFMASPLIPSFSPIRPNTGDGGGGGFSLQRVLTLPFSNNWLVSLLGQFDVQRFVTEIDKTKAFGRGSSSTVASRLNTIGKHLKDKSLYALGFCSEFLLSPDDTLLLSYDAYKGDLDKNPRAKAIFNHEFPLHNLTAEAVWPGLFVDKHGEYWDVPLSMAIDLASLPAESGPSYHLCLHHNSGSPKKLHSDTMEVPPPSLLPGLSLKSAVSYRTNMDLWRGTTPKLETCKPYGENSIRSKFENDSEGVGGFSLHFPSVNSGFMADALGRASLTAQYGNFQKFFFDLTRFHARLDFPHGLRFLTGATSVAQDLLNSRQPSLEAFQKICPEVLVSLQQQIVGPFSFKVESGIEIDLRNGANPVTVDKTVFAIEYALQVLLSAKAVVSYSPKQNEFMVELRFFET
Sequence of Arabidopsis TGD2, DsRed fusion of the 25-mer minimal domain (residues 201-225, SEQ ID NO:12), K221A (Q9LTR2 201-225 K221A): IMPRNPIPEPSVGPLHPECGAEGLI

`CCCCCCCC/C=C\CCCCCCCC(=O)OC[C@H](COP(=O)(O)O)OC(=O)CCCCCCC/C=C\CCCCCCCC` [PA, phosphatidic acid]: the PA binding entry is “sufficient to mediate specific binding to PA” in assay [1] (PA liposomes, FIG. 4A) and “significantly reduced the amount of interaction with PA-liposomes” in assay [4]. The “cooperativity of PA binding” value in assay [1] (mixed PA/PC liposomes, FIG. 5) is recorded as “loses positive cooperativity; also recorded: not cooperative”. In addition, in assay [2], the “binding to PC or PA” value is recorded as “does not display binding”. Also, the PtdOH binding activity entry in assay [3] is recorded as “did not require the central hydrophobic region of TGD4”. Also, the “effect of pH on PtdOH binding” value in assay [5] is given as “not affected”.

These data come from patent publication US8629251B2, “Specific detection and quantification of phosphatidic acid using an Arabidopsis trigalactosyldiacylglycerol-4 (TGD4) protein” (Board of Trustees of Michigan State University, priority 2008, dated 2014).
